The record followed here is Sander's compilation of Henry's law constants (doi:10.1063/1.555654).

This series can be described thus: Henry solubility constant Hcp at 298.15 K (mol/(m3 Pa)). Particulars: reference: Mackay and Shiu (1981).

Regarding `Clc1cc(Cl)c(Cl)c(Cl)c1` [1,2,3,5-tetrachlorobenzene], the “Henry solubility constant Hcp” value amounted to 0.0063. The result for `Clc1cccc(Cl)c1Cl` [1,2,3-trichlorobenzene] reads 0.0079. The result for `Clc1ccc(Cl)cc1` [1,4-dichlorobenzene] reads 0.0042.

Take `Clc1cccc2ccccc12` [1-chloronaphthalene]: the “Henry solubility constant Hcp” value was 0.0028. The result for `Cc1cccc2ccccc12` [1-methylnaphthalene] reads 0.038; that for `c1ccc2c(c1)Cc1ccccc1-2` [2,3-benzindene], 0.099; that for `Clc1ccc2ccccc2c1` [2-chloronaphthalene], 0.031. As for `c1cc2c3c(cccc3c1)CC2` [acenaphthene], the “Henry solubility constant Hcp” value amounted to 0.0064. In the case of `c1ccc2cc3ccccc3cc2c1` [anthracene] it was 0.014; in that of `c1ccc(-c2ccccc2)cc1` [biphenyl], 0.033; in that of `Brc1ccccc1` [bromobenzene], 0.004. In the case of `Clc1ccccc1` [chlorobenzene] it was 0.0032; in that of `c1ccc2c(c1)ccc1ccccc12` [phenanthrene], 0.27.
